Measurements taken from the supplement of paper PMC10307832.

compound: CC1=NN=C(O1)C2=NN=C(C=C2)N3CCC(CC3)OC4=C(C=CC(=C4)F)Cl + O=C(c1cc(Cc2n[nH]c(=O)c3ccccc23)ccc1F)N1CCN(C(=O)C2CC2)CC1 [Olaparib] (partner 8 µM); assay: relative viability (nuclei count vs DMSO), 5 days (fraction); higher = more cells survive; details: first compound 0.253 µM
In short: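 Lung cancer cell lines in 1536-well plates were dosed by pin tool the day after seeding, either with one drug alone or with a fixed anchor-drug dose plus five library-drug doses (not always all listed) in √10 steps. After 5 days, cells were fixed and their nuclei stained in one step (final 0.05% Triton X-100, 1% formaldehyde, 1 ug/ml Hoechst), then counted on 4× images. Relative viability is the nuclei count in treated wells divided by that in vehicle wells. Values are medians of duplicate plates.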

| Cell Line | relative viability |
| --- | --- |
| NCI-H522 | 0.694 |
| SK-LU-1 | 0.356 |
| NCI-H1703 | 0.341 |
| EBC-1 | 0.485 |
| NCI-H1792 | 0.264 |
| NCI-H2087 | 0.502 |
| NCI-H596 | 0.541 |
| NCI-H1355 | 0.378 |
| SW 1573 | 0.524 |
| LCLC-103H | 0.512 |
| NCI-H727 | 0.68 |
| NCI-H2405 | 0.586 |
| EMC-BAC-2 | 0.376 |
| NCI-H23 | 0.164 |
| Calu-6 | 0.381 |
| HCC-366 | 0.117 |
| NCI-H1755 | 0.65 |
| NCI-H838 | 0.536 |
| LK-2 | 0.757 |
| NCI-H2347 | 0.49 |
| NCI-H2342 | 0.305 |
| SK-MES-1 | 0.497 |
| H3255 | 0.483 |
| COR-L23 | 0.259 |
| COR-L 105 | 0.556 |
| IA-LM | 0.114 |

| Cell Line | relative viability |
| --- | --- |
| LU99A | 0.214 |
| ChaGo-K-1 | 0.298 |
| NCI-H2170 | 0.303 |
| NCI-H460 | 0.15 |
| HOP-62 | 0.388 |
| HCC-44 | 0.295 |
| A549 | 0.235 |
| LXF-289 | 0.829 |
| BEN | 1.2 |
| HARA | 0.331 |
| NCI-H1648 | 0.459 |
| HCC-78 | 0.454 |
| NCI-H647 | 0.232 |
| LCLC-97TM1 | 0.369 |
| NCI-H2126 | 0.816 |
| A-427 | 0.527 |
| NCI-H650 | 0.39 |
| RERF-LC-KJ | 0.377 |
| NCI-H1915 | 0.202 |
| NCI-H661 | 0.619 |
| NCI-H441 | 0.355 |
| NCI-H1975 | 0.466 |
| NCI-H1395 | 0.482 |
| 201T | 0.409 |
| NCI-H2023 | 0.311 |
| HCC-827 | 0.396 |

| Cell Line | relative viability |
| --- | --- |
| NCI-H1299 | 0.741 |
| NCI-H322M | 0.746 |
| NCI-H1437 | 0.416 |
| PC-14 | 0.257 |
| CAL-12T | 0.639 |
| NCI-H1734 | 0.544 |
| EPLC-272H | 0.744 |
| NCI-H3122 | 0.283 |
| NCI-H2009 | 0.363 |
| NCI-H520 | 0.308 |
| NCI-H1651 | 0.165 |
| NCI-H1993 | 0.894 |
| NCI-H2228 | 0.461 |
| HCC-15 | 0.354 |
| NCI-H1793 | 0.761 |
| EKVX | 0.402 |
| LC-2-ad | 0.297 |
| NCI-H1666 | 0.692 |
| NCI-H1944 | 0.289 |
| NCI-H2085 | 0.636 |
| NCI-H1650 | 0.516 |
| ABC-1 | 0.664 |
| NCI-H358 | 0.296 |
| PC-3 [JPC-3] | 1 |

same assay, conditions: first compound 0.8 µM

| Cell Line | relative viability |
| --- | --- |
| NCI-H522 | 0.566 |
| SK-LU-1 | 0.341 |
| NCI-H1703 | 0.438 |
| EBC-1 | 0.538 |
| NCI-H1792 | 0.376 |
| NCI-H2087 | 0.34 |
| NCI-H596 | 0.732 |
| NCI-H1355 | 0.422 |
| SW 1573 | 0.519 |
| LCLC-103H | 0.509 |
| NCI-H727 | 0.7 |
| NCI-H2405 | 0.469 |
| EMC-BAC-2 | 0.414 |
| NCI-H23 | 0.272 |
| Calu-6 | 0.389 |
| HCC-366 | 0.139 |
| NCI-H1755 | 0.616 |
| NCI-H838 | 0.595 |
| LK-2 | 0.58 |
| NCI-H2347 | 0.49 |
| NCI-H2342 | 0.309 |
| SK-MES-1 | 0.507 |
| H3255 | 0.498 |
| COR-L23 | 0.271 |
| COR-L 105 | 0.703 |
| IA-LM | 0.12 |

| Cell Line | relative viability |
| --- | --- |
| LU99A | 0.294 |
| ChaGo-K-1 | 0.255 |
| NCI-H2170 | 0.248 |
| NCI-H460 | 0.155 |
| HOP-62 | 0.116 |
| HCC-44 | 0.358 |
| A549 | 0.0638 |
| SW 900 | 0.801 |
| LXF-289 | 0.632 |
| BEN | 0.767 |
| HARA | 0.244 |
| NCI-H1648 | 0.574 |
| HCC-78 | 0.384 |
| NCI-H647 | 0.157 |
| NCI-H2126 | 0.697 |
| A-427 | 0.634 |
| NCI-H650 | 0.227 |
| RERF-LC-KJ | 0.536 |
| NCI-H1915 | 0.17 |
| NCI-H661 | 0.542 |
| NCI-H441 | 0.353 |
| NCI-H1975 | 0.574 |
| NCI-H1395 | 0.539 |
| 201T | 0.382 |
| NCI-H2023 | 0.274 |
| HCC-827 | 0.242 |

| Cell Line | relative viability |
| --- | --- |
| NCI-H1299 | 0.722 |
| NCI-H322M | 0.724 |
| NCI-H1437 | 0.516 |
| PC-14 | 0.226 |
| CAL-12T | 0.68 |
| NCI-H1734 | 0.509 |
| EPLC-272H | 0.742 |
| NCI-H3122 | 0.273 |
| NCI-H2009 | 0.39 |
| NCI-H520 | 0.346 |
| NCI-H1651 | 0.162 |
| NCI-H1993 | 0.758 |
| NCI-H2228 | 0.291 |
| HCC-15 | 0.305 |
| NCI-H1793 | 0.74 |
| EKVX | 0.381 |
| LC-2-ad | 0.257 |
| NCI-H1666 | 0.728 |
| NCI-H1944 | 0.337 |
| NCI-H2085 | 0.604 |
| NCI-H1650 | 0.645 |
| ABC-1 | 0.506 |
| NCI-H358 | 0.275 |
| PC-3 [JPC-3] | 0.899 |
| LOU-NH91 | 0.818 |

same assay, conditions: first compound 2.53 µM

| Cell Line | relative viability |
| --- | --- |
| NCI-H522 | 0.664 |
| SK-LU-1 | 0.348 |
| NCI-H1703 | 0.448 |
| EBC-1 | 0.509 |
| NCI-H1792 | 0.337 |
| NCI-H2087 | 0.485 |
| NCI-H596 | 0.752 |
| NCI-H1355 | 0.75 |
| SW 1573 | 0.426 |
| LCLC-103H | 0.514 |
| NCI-H727 | 0.656 |
| NCI-H2405 | 0.514 |
| EMC-BAC-2 | 0.457 |
| NCI-H23 | 0.327 |
| Calu-6 | 0.385 |
| HCC-366 | 0.258 |
| NCI-H1755 | 0.657 |
| NCI-H838 | 0.637 |
| LK-2 | 0.655 |
| NCI-H2347 | 0.552 |
| NCI-H2342 | 0.369 |
| SK-MES-1 | 0.538 |
| H3255 | 0.5 |
| COR-L23 | 0.345 |
| COR-L 105 | 0.819 |
| IA-LM | 0.131 |

| Cell Line | relative viability |
| --- | --- |
| LU99A | 0.277 |
| ChaGo-K-1 | 0.354 |
| NCI-H2170 | 0.342 |
| NCI-H460 | 0.199 |
| HOP-62 | 0.192 |
| HCC-44 | 0.346 |
| A549 | 0.409 |
| SW 900 | 0.776 |
| LXF-289 | 0.902 |
| BEN | 0.966 |
| HARA | 0.317 |
| NCI-H1648 | 0.406 |
| HCC-78 | 0.387 |
| NCI-H647 | 0.173 |
| LCLC-97TM1 | 0.267 |
| NCI-H2126 | 0.767 |
| A-427 | 0.744 |
| NCI-H650 | 0.407 |
| RERF-LC-KJ | 0.553 |
| NCI-H1915 | 0.184 |
| NCI-H661 | 0.583 |
| NCI-H441 | 0.349 |
| NCI-H1975 | 0.518 |
| NCI-H1395 | 0.445 |
| 201T | 0.389 |
| NCI-H2023 | 0.307 |

| Cell Line | relative viability |
| --- | --- |
| HCC-827 | 0.401 |
| NCI-H1299 | 0.717 |
| NCI-H322M | 0.817 |
| NCI-H1437 | 0.449 |
| PC-14 | 0.317 |
| CAL-12T | 0.651 |
| NCI-H1734 | 0.57 |
| EPLC-272H | 0.758 |
| NCI-H3122 | 0.336 |
| NCI-H2009 | 0.421 |
| NCI-H520 | 0.294 |
| NCI-H1651 | 0.17 |
| NCI-H1993 | 0.855 |
| NCI-H2228 | 0.702 |
| HCC-15 | 0.348 |
| NCI-H1793 | 0.762 |
| EKVX | 0.464 |
| LC-2-ad | 0.255 |
| NCI-H1666 | 0.655 |
| NCI-H1944 | 0.359 |
| NCI-H2085 | 0.709 |
| NCI-H1650 | 0.642 |
| ABC-1 | 0.488 |
| NCI-H358 | 0.321 |
| PC-3 [JPC-3] | 0.997 |
| LOU-NH91 | 0.879 |

same assay, conditions: first compound 8 µM

| Cell Line | relative viability |
| --- | --- |
| NCI-H522 | 0.686 |
| SK-LU-1 | 0.41 |
| NCI-H1703 | 0.609 |
| EBC-1 | 0.438 |
| NCI-H1792 | 0.364 |
| NCI-H2087 | 0.425 |
| NCI-H596 | 0.615 |
| NCI-H1355 | 0.596 |
| SW 1573 | 0.412 |
| LCLC-103H | 0.465 |
| NCI-H727 | 0.665 |
| NCI-H2405 | 0.499 |
| EMC-BAC-2 | 0.441 |
| NCI-H23 | 0.302 |
| Calu-6 | 0.384 |
| HCC-366 | 0.157 |
| NCI-H1755 | 0.562 |
| NCI-H838 | 0.591 |
| LK-2 | 0.672 |
| NCI-H2347 | 0.44 |
| NCI-H2342 | 0.363 |
| SK-MES-1 | 0.507 |

| Cell Line | relative viability |
| --- | --- |
| H3255 | 0.527 |
| COR-L23 | 0.299 |
| COR-L 105 | 0.901 |
| IA-LM | 0.121 |
| LU99A | 0.299 |
| ChaGo-K-1 | 0.28 |
| NCI-H2170 | 0.256 |
| NCI-H460 | 0.198 |
| HOP-62 | 0.279 |
| HCC-44 | 0.363 |
| A549 | 0.163 |
| SW 900 | 0.802 |
| LXF-289 | 0.788 |
| BEN | 1.07 |
| HARA | 0.256 |
| NCI-H1648 | 0.618 |
| HCC-78 | 0.456 |
| NCI-H647 | 0.0657 |
| LCLC-97TM1 | 0.258 |
| NCI-H2126 | 0.76 |
| A-427 | 0.669 |
| NCI-H650 | 0.382 |

| Cell Line | relative viability |
| --- | --- |
| RERF-LC-KJ | 0.529 |
| NCI-H1915 | 0.162 |
| NCI-H661 | 0.586 |
| NCI-H441 | 0.383 |
| NCI-H1975 | 0.533 |
| NCI-H1395 | 0.448 |
| 201T | 0.383 |
| NCI-H2023 | 0.235 |
| HCC-827 | 0.386 |
| NCI-H1299 | 0.664 |
| NCI-H322M | 0.732 |
| NCI-H1437 | 0.403 |
| PC-14 | 0.266 |
| CAL-12T | 0.644 |
| NCI-H1734 | 0.472 |
| EPLC-272H | 0.657 |
| NCI-H3122 | 0.293 |
| NCI-H2009 | 0.375 |
| NCI-H520 | 0.259 |
| NCI-H1651 | 0.162 |
